Experimental data: US20110251238A1, “PPAR AGONIST COMPOSITIONS AND METHODS OF USE” (BIOPHARMED, priority 2008, published 2011)
Values after ≈ are worked out from the molar mass of the structure shown. Like-named read-outs stand apart in the source and are kept apart here.

Assays:
T98G (glioblastoma) = assay: cells; type: cell-based; conditions: read-out: IC50 T98G
Method: (§1) A549 (human lung adenocarcinoma epithelial), BxPC3 (pancreatic cancer), LoVo (colon cancer), MCF-7 (epithelial breast cancer), PC3 (human prostate cancer), Hs683 (human glioma), T98G (glioblastoma), U373 (human glioblastoma-astrocytoma), U138 MG (human glioma), epithelial-like), SKMEL28 (human melanoma), B16-F10 (mouse melanoma) and RhTP (rhabdomyosarcoma) cell lines were cultured in presence of the drugs for 3 days. The cytotoxic activity is expressed as (IC50). Inhibition of cell proliferation measured by the MTT colorimetric assay. The values reported in Table 4 are means of six distinct values.

GL19 = assay: Growth inhibition, MTT colorimetric assay, GL19; type: cell-based; conditions: read-out: IC50 GL19
Method: as §1, with “Compounds that met the criteria for activity on KB3 cells were further tested for drug growth inhibitory activity in 5 carcinoma, 6 glioma and 3 melanoma cell lines, shown in Table 4. A549” for “A549”, “values. The standard errors are <5% as compared to the mean values.” for “values.”

RhTP (rhabdomyosarcoma) = assay: Growth inhibition, MTT colorimetric assay, RhTp; type: cell-based; conditions: read-out: IC50 RhTp
Method: as §1, with “Compounds that met the criteria for activity on KB3 cells were further tested for drug growth inhibitory activity in 5 carcinoma, 6 glioma and 3 melanoma cell lines, shown in Table 4. A549” for “A549”, “values. The standard errors are <5% as compared to the mean values.” for “values.”

[1] = test system: PC3 (human prostate cancer); assay: Growth inhibition, MTT colorimetric assay, PC3; type: cell-based; conditions: read-out: IC50 PC3
Method: as §1, with “Compounds that met the criteria for activity on KB3 cells were further tested for drug growth inhibitory activity in 5 carcinoma, 6 glioma and 3 melanoma cell lines, shown in Table 4. A549” for “A549”, “values. The standard errors are <5% as compared to the mean values.” for “values.”

Host = assay: Growth inhibition, MTT colorimetric assay, Host; type: cell-based; conditions: read-out: IC50 Host
Method: as §1, with “Compounds that met the criteria for activity on KB3 cells were further tested for drug growth inhibitory activity in 5 carcinoma, 6 glioma and 3 melanoma cell lines, shown in Table 4. A549” for “A549”, “values. The standard errors are <5% as compared to the mean values.” for “values.”

LoVo (colon cancer) = assay: Growth inhibition, MTT colorimetric assay, LoVo; type: cell-based; conditions: read-out: IC50 LoVo
Method: as §1

[2] = test system: bloodstream forms of T. brucei and T. congolense; assay: Trypanocidal activity in vitro, Alamar Blue assay; type: cell-based, Trypanosoma brucei and T. congolense
Excerpt: Trypanosoma brucei and T. congolense are the causative agents of sleeping sickness in humans and nagana in cattle, respectively. The protozoan parasites live extracellularlyin blood and tissue fluids of mammals and are transmitted by the bite of infected tsetse flies (Glossina spp.). Here the trypanocidal activity against bloodstream forms of T. brucei and T. congolense of bis-8-hydroxy quinoline N-substituted benzylamines derivatives was investigated in vitro, according to methods described in. Steverding et al. (2006) Kinetoplastid Biology and Disease, 5(3): 1-5; Hongmance et al., (2007) Antimicrob. Agents Chemother. 51:1105-1106; and Zhao et al., (2005) Bio-org. Med. Chem.; 13: 3921-3926. Cells were seeded into 96-well tissue culture plates in 200 μl medium containing various concentrations of analogues dissolved in H2O. The controls contained the respective solvent alone. […] After 24 h (trypanosomes) or 43 h (HL-60) incubation, 20 μl of the colorimetric viability indicator Alamar Blue® was added to each well. The cells were incubated for a further 24 h (trypanosomes) or 5 h (HL-60) so that the total incubation time was 48 h. Then, the plates were read on a Dynatech MR5000ELISA reader (Denkendorf, Germany),using a test wavelength of 550 nm and a reference wave length of 630 nm. Each test was set up in duplicate and repeated three times. For comparison, the general cytotoxicity of the compounds was assayed with human myeloid leukaemia HL-60 cells. The anti-trypanosomal activities and the general cytotoxicities of the new analogues were evaluated using the Alamar Blue® assay.

[3] = test system: BxPC3 (pancreatic cancer); assay: Growth inhibition, MTT colorimetric assay, BxPC3; type: cell-based, human; conditions: read-out: IC50 BxPC3
Method: Cells are cultured at 37° C. in Falcon culture dishes, incubated at 5% CO2 in a suitable culture medium available from Invitrogen Corp. Anti-proliferative activity is determined by an MTT assay (bromide of (3-[4,5-dimethylthiazolium-yl]diphenyltetrazolium)). According to one standard protocol, absorbance is measured at 570 nm (see Dumont et al. (2007) Neoplasia 9: 766-776.
as §1

KaKa = assay: Growth inhibition, MTT colorimetric assay, KaKa; type: cell-based; conditions: read-out: IC50 KaKa
Method: as §1, with “Compounds that met the criteria for activity on KB3 cells were further tested for drug growth inhibitory activity in 5 carcinoma, 6 glioma and 3 melanoma cell lines, shown in Table 4. A549” for “A549”, “values. The standard errors are <5% as compared to the mean values.” for “values.”

[4] = test system: A549 (human lung adenocarcinoma epithelial); assay: Growth inhibition, MTT colorimetric assay, A549; type: cell-based; conditions: read-out: IC50 A549
Method: as §1

[5] = test system: MCF-7 (epithelial breast cancer); assay: Growth inhibition, MTT colorimetric assay, MCF7; type: cell-based; conditions: read-out: IC50 MCF7
Method: as §1

U138 MG (human glioma) = assay: Growth inhibition, MTT colorimetric assay, U138; type: cell-based; conditions: read-out: IC50 U138
Method: as §1, with “Compounds that met the criteria for activity on KB3 cells were further tested for drug growth inhibitory activity in 5 carcinoma, 6 glioma and 3 melanoma cell lines, shown in Table 4. A549” for “A549”, “values. The standard errors are <5% as compared to the mean values.” for “values.”

B16-F10 (mouse melanoma) = assay: Growth inhibition, MTT colorimetric assay, B16F10; type: cell-based; conditions: read-out: IC50 B16F10
Method: as §1, with “Compounds that met the criteria for activity on KB3 cells were further tested for drug growth inhibitory activity in 5 carcinoma, 6 glioma and 3 melanoma cell lines, shown in Table 4. A549” for “A549”, “values. The standard errors are <5% as compared to the mean values.” for “values.”

Hs683 (human glioma) = assay: Growth inhibition, MTT colorimetric assay, HS683; type: cell-based; conditions: read-out: IC50 HS683
Method: as §1

[6] = test system: U373 (human glioblastoma-astrocytoma); assay: Growth inhibition, MTT colorimetric assay, U373; type: cell-based; conditions: read-out: IC50 U373
Method: as §1, with “Compounds that met the criteria for activity on KB3 cells were further tested for drug growth inhibitory activity in 5 carcinoma, 6 glioma and 3 melanoma cell lines, shown in Table 4. A549” for “A549”, “values. The standard errors are <5% as compared to the mean values.” for “values.”

[7] = test system: KB3 (epitheloid lung cancer) cell lines; assay: Cell growth inhibition (cytotoxicity), MTS assay, KB3 cell line; type: cell-based; conditions: Table 3A, MTS assay, triplicate, read-out: KB3 IC50
Method: Cell growth inhibition was determined by the MTS assay; the number of viable cells were proportional to the extent of formazan production in the presence or absence of drugs. […]

SKMEL28 (human melanoma) = assay: Growth inhibition, MTT colorimetric assay, SKMEL-28; type: cell-based; conditions: read-out: IC50 SKMEL-28
Method: as §1, with “Compounds that met the criteria for activity on KB3 cells were further tested for drug growth inhibitory activity in 5 carcinoma, 6 glioma and 3 melanoma cell lines, shown in Table 4. A549” for “A549”, “values. The standard errors are <5% as compared to the mean values.” for “values.”

[8] = 72 h, 3 days with drug, means of six values, unit inferred
[9] = 50% growth inhibition, 48 h total incubation, read-out: GI50
[10] = lowest concentration at which all cells were killed, 48 h total incubation, read-out: MIC
[11] = glioma, 3 days with drug, means of six values, unit inferred
[12] = 3 days with drug, means of six values, unit inferred
[13] = carcinoma, 3 days with drug, means of six values, unit inferred
[14] = melanoma, 3 days with drug, means of six values, unit inferred

Oc1ccc(CN(Cc2ccccc2)Cc2ccc(O)c3ncccc23)c2cccnc12 [BPM18,725, 5,5′-(benzylazanediyl)bis(methylene)diquinolin-8-ol] gave an IC50 (T98G (glioblastoma); Homo sapiens, T98G, 72 h, glioma, 3 days with drug, means of six values, unit inferred) of 249 nM, an IC50 (GL19; GL19, 72 h, 3 days with drug, means of six values, unit inferred) of 3450 nM and an IC50 (RhTP (rhabdomyosarcoma); [8]) of 97 nM. The IC50 ([1]; Homo sapiens, 72 h, carcinoma, 3 days with drug, means of six values, unit inferred) was 258 nM, the IC50 (Host; [8]) was 2160 nM and the IC50 (LoVo (colon cancer); Homo sapiens, LoVo, 72 h, carcinoma, 3 days with drug, means of six values, unit inferred) was 91 nM. The GI50 [2, 9] was 300 ± 10 nM, the MIC [2, 10] was 1 µM (≈ 0.422 µg/mL) and the IC50 ([3]; Homo sapiens, BXPC-3, 72 h, carcinoma, 3 days with drug, means of six values, unit inferred) was 7440 nM. The IC50 (KaKa; [8]) was 2430 nM, the IC50 ([4]; Homo sapiens, A549, 72 h, carcinoma, 3 days with drug, means of six values, unit inferred) was 54 nM and the IC50 ([5]; Homo sapiens, MCF7, 72 h, carcinoma, 3 days with drug, means of six values, unit inferred) was 97 nM. The IC50 (U138 MG (human glioma); Homo sapiens, U138-MG, 72 h, glioma, 3 days with drug, means of six values, unit inferred) was 95 nM, the IC50 (B16-F10 (mouse melanoma); Mus musculus, B16-F10, 72 h, melanoma, 3 days with drug, means of six values, unit inferred) was 765 nM and the IC50 (Hs683 (human glioma); Homo sapiens, Hs 683, 72 h, glioma, 3 days with drug, means of six values, unit inferred) was 76 nM. The IC50 ([6]; Homo sapiens, U373 MG, 72 h, glioma, 3 days with drug, means of six values, unit inferred) was 357 nM, the IC50 ([7]; KB3) was 20 nM and the IC50 (SKMEL28 (human melanoma); Homo sapiens, SK-MEL-28, 72 h, melanoma, 3 days with drug, means of six values, unit inferred) was over 10000 nM.

With Oc1ccc(CN(Cc2cccs2)Cc2ccc(O)c3ncccc23)c2cccnc12 [BPM18,202, 5,5′-(thiophen-2-ylmethylazanediyl)bis(methylene)diquinolin-8-ol] the IC50 (T98G (glioblastoma); Homo sapiens, T98G, 72 h) was 88 nM, the IC50 (GL19; GL19, 72 h) was 3450 nM and the IC50 (RhTP (rhabdomyosarcoma); 72 h) was 79 nM. For the same molecule, the IC50 ([1]; Homo sapiens, 72 h) was 44 nM, the IC50 (Host; 72 h) was 1730 nM and the IC50 (LoVo (colon cancer); Homo sapiens, LoVo, 72 h) was 40 nM. The GI50 ([2]; 48 h) was 310 ± 10 nM, the MIC ([2]; 48 h) was 1 µM (≈ 0.428 µg/mL) and the IC50 ([3]; Homo sapiens, BXPC-3, 72 h) was 89 nM. For the same molecule, the IC50 (KaKa; 72 h) was 1760 nM, the IC50 ([4]; Homo sapiens, A549, 72 h) was 27 nM and the IC50 ([5]; Homo sapiens, MCF7, 72 h) was 35 nM. It also gave an IC50 (U138 MG (human glioma); Homo sapiens, U138-MG, 72 h) of 44 nM, an IC50 (B16-F10 (mouse melanoma); Mus musculus, B16-F10, 72 h) of 86 nM and an IC50 (Hs683 (human glioma); Homo sapiens, Hs 683, 72 h) of 35 nM. It also gave an IC50 ([6]; Homo sapiens, U373 MG, 72 h) of 85 nM, an IC50 ([7]; KB3) of 2 nM and an IC50 (SKMEL28 (human melanoma); Homo sapiens, SK-MEL-28, 72 h) of 4830 nM.

Work on “5,5′-(3,5-bis(trifluorométhyl)benzylazanediyl)bis(méthylène)diquinoléin-8-ol [BPM18,201]” yielded an IC50 (T98G (glioblastoma); [11]) of 72 nM, an IC50 (GL19; [12]) of 2140 nM and an IC50 (RhTP (rhabdomyosarcoma); [12]) of 47 nM. It also gave an IC50 [1, 13] of 71 nM, an IC50 (Host; [12]) of 146 nM and an IC50 (LoVo (colon cancer); [13]) of 10 nM. It also gave a GI50 [2, 9] of 320 ± 10 nM, an MIC [2, 10] of 1 µM and an IC50 [3, 13] of 79 nM. For the same molecule, the IC50 (KaKa; [12]) was 98 nM, the IC50 [4, 13] was 9 nM and the IC50 [5, 13] was 38 nM. It also gave an IC50 (U138 MG (human glioma); [11]) of 46 nM, an IC50 (B16-F10 (mouse melanoma); [14]) of 76 nM and an IC50 (Hs683 (human glioma); [11]) of 181 nM. It also gave an IC50 [6, 11] of 96 nM, an IC50 [7] of 1000 nM and an IC50 (SKMEL28 (human melanoma); [14]) of over 10000 nM.
